Test results as given in patent publication US9243254B2, “Method for transforming a bacterium belonging to the streptococcus genus by natural competence” (priority 2009, dated 2016).

How the values were obtained:
[1] = tested on: LMD9-Δblp::PcomX-luxABΔshp316::P32-cat; experiment: Natural transformation in CDM of the shp316-deleted strain upon addition of synthetic peptides (test A); format: cell-based, Streptococcus thermophilus; details: 1 μM synthetic peptide; for Transformation rate, With peptide addition: 1 μg/mL pGIUD0855ery, CDM, erythromycin selection; for Restoration of the competence defect: result in words
Description: A mutant strain of LMD-9 in which the shp316 gene (which is the gene encoding the peptide Shp316) has been inactivated, such as strain LMD9-Δblp::PcomX-luxABΔshp316::P32-cat (see Example 2 for details on this strain) is pre-cultivated in M17-lactose medium. The cells of the preculture are harvested (5000 g, 9 minutes, 20° C.) and washed twice in Chemically Defined Medium (CDM, see Annex I) and then resuspended in CDM. The washed cells are diluted in fresh CDM medium to obtain an optical density of 0.05 at 600 nm, and then incubated at 37° C. After 1.5 h of incubation, the culture is separated in 2 aliquots of 10 mL and 0 or 1000 nM of peptide are added in the culture samples. Finally, each 10 mL-aliquot is divided in 2 samples of 5 mL each. One of the 2 samples receives 1 μg/mL pGIUD0855ery, a plasmid bearing an erythromycin resistance gene. The competence phenotype of the samples is studied by performing natural transformation experiments as described in example 1. The cultures are grown for 6 hours and serial dilutions are plated on the surface of M17-lactose agar medium containing or not 2.5 μg/mL of erythromycin. The transformation rate in the presence or absence of peptide is calculated for each sample; it is expressed as the ratio of erythromycin-resistant cells among the total bacterial population.
The experimental strategy is described below. Strain LMD9-Δblp::PcomX-luxABΔshp316::P32-cat is precultivated in M17-lactose medium. The cells of the preculture were harvested (5000 g, 9 minutes, 20° C.) and washed twice in CDM and then resuspended in CDM. The washed cells are diluted in fresh CDM to obtain an optical density of 0.05 at 600 nm, and then incubated at 37° C. After 1.5 h of incubation, in one set of experiment, 1 μM of one of the tested synthetic peptides and 1 μg/mL of pGIUD0855ery were added to the culture; whereas 1 μg/mL of pGIUD0855ery but no synthetic peptide was added to the second set of experiment. The cultures were grown during 6 hours and serial dilutions were plated on the surface of M17-lactose agar medium containing 2.5 μg/mL of erythromycin to measure transformation efficiency.
Ability of peptides derived from Shp316 to restore the competence defect of LMD9-Δblp::PcomX-luxABΔshp316::P32-cat was further investigated focusing on the synthetic peptide PYFAGCL. Experimental work was performed as described above except that various concentrations of PYFAGCL were used: 0 nM, 1 nM, 10 nM, 100 nM, 500 nM, 1 μM, 2.5 μM and 5 μM. […]

S. salivarius JIM8777 = experiment: Natural transformation in CDM upon addition of synthetic peptide; format: cell-based, Streptococcus salivarius
Description: (§1) Similarly to the protocol used in example 4, strains LMD-9, LMG18311, CNRZ1066 and JIM8777 were pre-cultivated in M17-lactose medium. The cells of the precultures were harvested (5000 g, 9 minutes, 20° C.) and washed twice in CDM and then resuspended in CDM. The washed cells were diluted in fresh CDM medium to obtain an optical density of 0.05, and then incubated at 37° C. After 1.5 h of incubation, in one set of experiment, 1 μM of one of the tested synthetic peptides and 1 μg/mL of pGIUD0855ery DNA (in case of S. thermophilus strains), or 1 μg/ml of pG+host09 DNA (in case of S. salivarius strains) were added to the culture, whereas 1 μg/mL of DNA but no synthetic peptide was added to the second set of experiment. The cultures were grown during 6 hours and serial dilutions were plated on the surface of M17-lactose agar medium containing 2.5 μg/mL of erythromycin to measure transformation efficiency. Transformed S. thermophilus and S. salivarius cells are selected at 37° C. and 29° C., respectively.
Day 2: • Centrifuge Day 1—culture (centrifugation parameters: 5000 g, 9 minutes, 15° C.) and perform two washing steps with one volume (10 mL) of CDM (centrifugation parameters: 5000 g, 9 minutes, 15° C.). • Dilute the culture in 10 mL CDM to obtain an OD600nm of 0.05. • A small volume of S. thermophilus cultures (300 μL) is then transferred in white microplate with a transparent bottom (655095; Greiner, Alphen aid Rijn, The Netherlands) and is grown at 37° C. Luminescence at 595 nm and optical density at 600 nm are recorded with the automatic Synergy HT multi-mode microplate reader. The luciferase activity catalysed by LuxAB requires the presence of nonanal as substrate. In this experimental set-up, nonanal (Acros Organics ref. 204-688-5) is supplied to the cultures by placing 50 μL of a solution containing 1% nonanal diluted in mineral oil in the spaces between the wells of a covered microplate (11). The nonanal present in the solution will become volatile and there will be an equilibrium between the concentration of nonanal present in the air and in the culture samples. The luminescence and absorbance are scanned every 10 minutes during 6 hours. • To perform a competence experiment, 1 μg of donor DNA is added in the 300 μL samples in the beginning of incubation. […] In case of the sample that received DNA, make different 10-fold dilutions of the sample and plate 100 μL on the same solid selective medium. Check the viability of the cells in the samples by plating 10 μL of serial 10-fold dilutions of the cultures on M17, lactose 1% medium. Transformants are picked following 24 h of incubation at 37° C. in anaerobic conditions (gaspak BBL). […]

S. thermophilus CNRZ1066 = experiment: as above; format: cell-based, Streptococcus thermophilus
Description: as §1
Similarly to the protocol used in example 4, various S. thermophilus strains, including LMD-9, CNRZ1066 and LMG18311 used as controls, were pre-cultivated in M17-lactose medium. The cells of the precultures were harvested (5000 g, 9 minutes, 20° C.) and washed twice in CDM and then resuspended in CDM. The washed cells were diluted in fresh CDM medium to obtain an optical density of 0.05, and then incubated at 37° C. After 1.5 h of incubation, in one set of experiment, 1 μM of one of the tested synthetic peptides (LPYFAGCL) (SEQ ID NO: 85) and 1 μg/mL of pGIUD0855cat DNA were added to the culture, whereas 1 μg/mL of DNA but no synthetic peptide was added to the second set of experiment. Plasmid pGIUD0855cat is a pUC18-derivative containing a chloramphenicol resistance cassette flanked by 1-kb fragments corresponding to the upstream and downstream regions of stu0855. Upon transformation, it promotes the genetic replacement of stu0855 by P32-cat through homologous recombination (FIG. 7). The cultures were grown during 6 hours and serial dilutions were plated on the surface of M17-lactose agar medium containing 5 μg/mL of chloramphenicol to measure transformation efficiency. Transformed S. thermophilus cells were selected at 37° C.; when transformants were obtained, the transformation efficiency was calculated and is given in Table 9.
Day 2: • Centrifuge Day 1—culture (centrifugation parameters: 5000 g, 9 minutes, 15° C.) and perform two washing steps with one volume (10 mL) of CDM (centrifugation parameters: 5000 g, 9 minutes, 15° C.). • Dilute the culture in 10 mL CDM to obtain an OD600nm of 0.05. • A small volume of S. thermophilus cultures (300 μL) is then transferred in white microplate with a transparent bottom (655095; Greiner, Alphen aid Rijn, The Netherlands) and is grown at 37° C. Luminescence at 595 nm and optical density at 600 nm are recorded with the automatic Synergy HT multi-mode microplate reader. The luciferase activity catalysed by LuxAB requires the presence of nonanal as substrate. In this experimental set-up, nonanal (Acros Organics ref. 204-688-5) is supplied to the cultures by placing 50 μL of a solution containing 1% nonanal diluted in mineral oil in the spaces between the wells of a covered microplate (11). […] The luminescence and absorbance are scanned every 10 minutes during 6 hours. • To perform a competence experiment, 1 μg of donor DNA is added in the 300 μL samples in the beginning of incubation. […]

[2] = 1 μM PYFTGCL, 1 μg/mL pG+host09

Substance | Transformation rate, With peptide addition [1] | also measured
AILPYFAGC (fragment) [synthetic peptide, fragment of Shp316 without the carboxy-terminal leucine] | <10^−8 | 
AILPYFAGCL (fragment) [synthetic peptide corresponding to a C-terminal fragment of Shp316] | 2.21 × 10^−3 | Restoration of the competence defect [1]: allowed to restore the competence defect
ILPYFAG (fragment) [synthetic peptide corresponding to a fragment of Shp316 without the C-terminal CL] | <10^−8 | 
ILPYFAGC (fragment) [synthetic peptide, fragment of Shp316 without the carboxy-terminal leucine] | <10^−8 | 
ILPYFAGCL (fragment) [synthetic peptide corresponding to a C-terminal fragment of Shp316] | 3.42 × 10^−3 | Restoration of the competence defect [1]: allowed to restore the competence defect
LPYFAGC (fragment) [synthetic peptide, fragment of Shp316 without the carboxy-terminal leucine] | <10^−8 | 
PYFAG (fragment) [synthetic peptide corresponding to a fragment of Shp316 without the C-terminal CL] | <10^−8 | 
PYFAGC (fragment) [synthetic peptide, fragment of Shp316 without the carboxy-terminal leucine] | <10^−8 | 
PYFTGCL (fragment) [alanine in position 4 replaced by threonine] |  | Transformation rate, With peptide addition (S. salivarius JIM8777; [2]): 5.77 × 10^−7; Complementation of the transformation defect in CDM (S. salivarius JIM8777; 1 μM peptide, result in words): able to complement the transformation defect; Transformation rate, With peptide addition (S. thermophilus CNRZ1066; [2]): 3.48 × 10^−7; Complementation of the transformation defect in CDM (S. thermophilus CNRZ1066; 1 μM peptide, result in words): able to complement the transformation defect
